These results are taken from patent US8614333B2, “Acenaphtho heterocyclic compound and application thereof” (Dalian University of Technology, priority 2010, dated 2013).

Structures are written as SMILES.

Series [1] addresses Bcl-2 protein (Homo sapiens, UniProt P10415). The series can be described thus: ELISA assay, competitive binding to Bcl-2 protein (biotin-Bim/streptavidin plate). As to conditions: method calculates average IC50, read-out: Bcl-2 binding constants. The protocol: (§1) The present inventors used fluorescence polarization assay to detect the bonding force between the protein and the compounds in a previous study (PCT/CN2010/075521). […] ELISA assay was used to detect the bonding force between the compounds and the protein in this application.
(§2) Biotinylated Bim peptide was diluted to 0.09 μg/mL in SuperBlock blocking buffer in PBS and incubated for 1.5 h in 96-well microtiter plates already coated with streptavidin to allow the formation of the complex between Biotin-Bim and streptavidin. All incubations were performed at room temperature unless otherwise noted. Each inhibitor was first dissolved in pure DMSO to obtain a 10 mM stock solution. For each tested inhibitor, different concentrations of the inhibitor were incubated with 20 nM His-tagged Mcl-1 protein in PBS for 1 h with a final DMSO concentration of 4%. The plates were washed three times with PBS containing 0.05% Tween-20. The inhibitor and protein mixture (100 μL) were transferred to the plate containing the biotin-Bim/streptavidin complex and incubated for 2 h. The plate was then washed as before and mouse anti-His antibody that conjugated with horseradish peroxidase was added into the wells and incubated for 1 h. The plate was then washed with PBS containing 0.05% Tween-20. Finally, TMB was added to each well; the enzymatic reaction was stopped after 30 min by addition of H2SO4 (100 μL, 2M). Absorbances were measured with a TECAN GENios (Swiss, TECAN) microplate reader using a wavelength of 450 nm. Three independent experiments were performed with each inhibitor to calculate average IC50 value and standard deviation (SD).
(§3) The BH3 analogous degrees of other 11 compounds were detected by using the experimental method as described above. The protein binding constant (binding constant in table 1) between them and Bcl-2 and Mcl-1 proteins were also on nM grade.

Series [2] has as its target His-tagged Mcl-1 protein (Homo sapiens, UniProt Q07820). The series is described as follows: ELISA assay, competitive binding to Mcl-1 protein (biotin-Bim/streptavidin plate). Conditions: 20 nM His-tagged Mcl-1, method calculates average IC50, read-out: Mcl-1 binding constants. As for the experimental part: as §1, §2, §3
The target in series [3] is T1, interaction between Bcl-2 and Bax (Homo sapiens, UniProt P10415).
T1 construct: expressed in transfected cells; host or cells: Hela cells
T1 sequence (P10415 whole entry): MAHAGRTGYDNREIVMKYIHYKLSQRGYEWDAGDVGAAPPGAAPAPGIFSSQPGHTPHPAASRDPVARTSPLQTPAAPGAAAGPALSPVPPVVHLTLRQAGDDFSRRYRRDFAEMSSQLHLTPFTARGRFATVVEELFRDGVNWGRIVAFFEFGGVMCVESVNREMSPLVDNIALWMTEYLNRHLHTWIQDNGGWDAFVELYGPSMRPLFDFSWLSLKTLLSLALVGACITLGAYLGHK
The series is described as follows: Intracellular FRET, Bcl-2-CFP/Bax-YFP in Hela cells. Format: cell-based. As to conditions: for Time (time period after which the interaction between Bcl-2 and Bax was interfered): at the concentration given. As for the experimental part: 2 μg of Bcl-2-CFP and Bax-YFP plasmids were transfected separately or simultaneously into Hela cells by using calcium phosphate coprecipitation method, 24 hours later, the cells were inoculated in a 6-well plate (2×10^5 cells/well), and the compound 1 to be detected dissolved in DMSO was added there into until the final concentration (2, 5, 10 and 15 μM) was achieved. 24 hours later (please refer to FIG. 5); the cells were washed with PBS for three times. The fluorescence value was detected by GENIOS fluorescence enzyme-labelled meter (TECAN, Swiss). In time-dependent experiment, the transfected cells were inoculated in a 6-well plate, after that, 40 μM of the compound was added thereinto. 3, 6 and 24 hours later (FIG. 6), the fluorescence intensities were detected by plate reader. As for the cell group in which only Bcl-2-CFP plasmid was transfected, the values at 475 nm emission wave length and 433 nm excitation wave length were recorded. As for the cell group in which only Bax-YFP plasmid was transfected, the values at 527 nm emission wave length and 505 nm excitation wave length were recorded. As for the cell group in which Bcl-2-CFP and Bax-YFP plasmids were co-transfected, the values at 527 nm and 475 emission wave lengths and 433 nm excitation wave length were recorded. The ratio of fluorescence intensity at 527 nm and 475 nm emission wave lengths was FRET. The FRET for the control group in which the plasmid was solely transfected was set as 1.0. […] In the cotransfected cells, the FRET increased up to 2.0 due to the interaction of Bcl-2 protein and Bax protein, and that the interference to the interaction between the two proteins increased and FRET decreased with the increase of the drug concentration and time. The cellular vitality was detected by MTT method. When the concentration of the compound reached 1 μM, the interaction between Bcl-2 and Bax can be interfered after 2 hours, and the results appeared concentration-time dependent trend.
Wherein the concentration and time meant that the detected compound interfered with the interaction between Bcl-2 and Bax at the concentration for the time period.

Series [4] has as its system BAX shift towards the chondriosome. The series is described as follows: Co-localization between Bax protein and chondriosome, Bax-YFP in MCF-7 cells. Conditions: for Doses (concentration at which the compound drove the BAX to shift towards the chondriosome): Bax-YFP/Mito Tracker Red; for Time (time period after which BAX shifted towards the chondriosome): at the concentration given. Format: cell-based. The protocol: 5 μg of Bax-YFP plasmid was transfected into MCF-7 cells by using calcium phosphate coprecipitation method, 24 hours later, the cells were inoculated in a 6-well plate (0.2×10^6 cells/well), and 10 μM of the compound 1 to be detected was added thereinto. 6 hours later, the cells were washed with PBS and hatched away from light with 50 nM Mito Tracker Red CMXRos (chondriosome specific probes; red) for 10 minutes. Then the cells were washed with PBS for three times, and the fluorescent image was scanned with Radiance2000 laser confocal microscopy (Bio-Rad, USA). Meanwhile, dual channel scanning was carried out, one channel was used to scan the green fluorescence of Bax-YFP, and the other channel was used to scan the red fluorescence of the CMXRos probe for indicating the chondriosome. […] When the Bax protein was localized on the chondriosome, the green and red fluorescence was superimposed into orange, as shown in FIG. 7.
Other 24 compounds were detected by the same experimental method as described above. […] Wherein the concentration and time meant that the detected compound simulated the BH3-only protein and driven the BAX to shift towards the chondriosome at the concentration for the time period.

The test system of series [5] is MCF-7 cells. The series can be described thus: Cytotoxicity by MTT, cells without plasmid transfection. Format: cell-based. Conditions: Homo sapiens, MCF7; MCF-7, MTT, 48 hours; read-out: IC50 value in untransfected cells. As for the experimental part:
(§4) 3 μg of BAX/BAK interfering plasmid was transfected into MCF-7 cells by using calcium phosphate coprecipitation method, 24 hours later, the cells were collected. The expressions after the BAX and BAK proteins interfered with RNA was detected by Western, and the cell groups without plasmid transfection were treated similarly and were set as the control group. The transfected cells were inoculated in a 96-well plate (1×10^5 cells/well), the control experiment of the cell group without plasmid transfection was carried out in parallel. The compound 1 to be detected was added thereinto according to the concentration gradient designed before the experiment. 48 hours later, the cellular vitality was detected by MTT. The experimental results were shown in FIG. 9, Gossypol as nonspecific BH3 analogue was treated in parallel.
(§5) Other 24 compounds were also detected by the same experimental method as described above, the differences of IC50 values between the transfected cells and the without plasmid transfection cells were compared.

Series [6] relates to MCF-7 cells transfected with BAX/BAK interfering plasmid. The series can be described thus: Cytotoxicity by MTT, cells transfected with BAX/BAK interfering plasmid. Format: cell-based. Conditions: Homo sapiens, MCF7; MCF-7 with BAX/BAK interfering plasmid, MTT, 48 hours. As for the experimental part: as §4, §5
Series [7] has as its system Bcl-2. The series is described as follows: Western blotting, semiquantitative analysis of Bcl-2 protein bands. As to conditions: control = 1, tumor cells. Format: cell-based. The protocol: (§6) The interest protein was detected by the corresponding antibody. The expression of the interest protein in the cells was detected by horseradish peroxidase-labeled secondary antibodies in combination with ECL coloration method. […] The concentration of the protein bands in the Western images were carried out semiquantitative analysis and normalization treatment with KODAK Gel Logic 1500 imaging system software.

Series [8] relates to Mcl-1. The series can be described thus: Western blotting, semiquantitative analysis of Mcl-1 protein bands. Format: cell-based. Conditions: control = 1, tumor cells. The protocol:
as §6
For orientation: Immunoblotting shows a protein as a band on a membrane.

Chain of His-tagged Mcl-1 protein (Q07820 whole entry): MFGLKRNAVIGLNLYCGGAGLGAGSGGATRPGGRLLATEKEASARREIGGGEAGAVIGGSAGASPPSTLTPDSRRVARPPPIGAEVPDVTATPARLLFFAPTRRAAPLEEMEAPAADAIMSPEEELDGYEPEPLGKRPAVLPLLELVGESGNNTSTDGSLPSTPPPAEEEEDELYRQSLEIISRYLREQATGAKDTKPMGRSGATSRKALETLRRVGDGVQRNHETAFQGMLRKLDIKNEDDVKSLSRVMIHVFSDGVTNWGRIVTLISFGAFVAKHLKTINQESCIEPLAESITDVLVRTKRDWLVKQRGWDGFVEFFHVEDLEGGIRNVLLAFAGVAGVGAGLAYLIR
Chain of Bcl-2 protein (P10415 whole entry, species assumed): as the sequence (P10415 whole entry) above

The compound `CCCCNC1=C2C(=NC1=O)c1cccc3c(Oc4ccc(C(C)C)cc4)ccc2c13` [Compound 11, 9-Butylamino-3-(4-isopropyl-phenoxy)-acenaphtho[1,2-b]pyrrol-8-one] had a melting point of 243 to 244 °C. Further, in series [1], the IC50 is 112 nM. Besides, the IC50 in [2] was 46 nM. Besides, in [3], the “Doses (concentration at which the compound interfered with the interaction between Bcl-2 and Bax)” value came to 0.3 µM; the “Time (time period after which the interaction between Bcl-2 and Bax was interfered)” value came to 2 h. In series [4], the “Doses (concentration at which the compound drove the BAX to shift towards the chondriosome)” value turned out to be 0.9 µM and the “Time (time period after which BAX shifted towards the chondriosome)” value was found to be 3 h. The IC50 in series [5] was 4200 nM. In addition, in series [6], the IC50 is above 50000 nM. Further, the “concentration of the protein bands (semiquantitative, normalized), Bcl-2” value in series [7] (6 h) worked out at 0.99. For the same compound, the “concentration of the protein bands (semiquantitative, normalized), Bcl-2” value in [7] (12 h) was 0.99. Also, the “concentration of the protein bands (semiquantitative, normalized), Bcl-2” value in series [7] (18 h) turned out to be 0.57. Besides, in series [7] (24 h), the “concentration of the protein bands (semiquantitative, normalized), Bcl-2” value amounted to 0.22. Moreover, the “concentration of the protein bands (semiquantitative, normalized), Mcl-1” value in series [8] (2 h) worked out at 0.70. For the same compound, the “concentration of the protein bands (semiquantitative, normalized), Mcl-1” value in [8] (6 h) worked out at 0.34.

The compound `CCCCNC1=C2C(=NC1=O)c1cccc3c(N4CCSCC4)ccc2c13` [Compound 9, 9-Butylamino-3-thiomorpholin-4-yl-acenaphtho[1,2-b]pyrrol-8-one] displayed a melting point of 239 to 240 °C. Also, the IC50 in series [1] is 63 nM. Besides, in series [2], the IC50 is 16 nM. In [3], the “Doses (concentration at which the compound interfered with the interaction between Bcl-2 and Bax)” value turned out to be 0.4 µM; the “Time (time period after which the interaction between Bcl-2 and Bax was interfered)” value worked out at 2 h. In [4], the “Doses (concentration at which the compound drove the BAX to shift towards the chondriosome)” value was determined as 0.6 µM and the “Time (time period after which BAX shifted towards the chondriosome)” value worked out at 3 h. In series [5], the IC50 is 1300 nM. For the same compound, the IC50 in series [6] was above 50000 nM. For the same compound, the “concentration of the protein bands (semiquantitative, normalized), Bcl-2” value in series [7] (6 h) is 0.99. Moreover, in series [7] (12 h), the “concentration of the protein bands (semiquantitative, normalized), Bcl-2” value was found to be 0.99. In addition, the “concentration of the protein bands (semiquantitative, normalized), Bcl-2” value in [7] (18 h) was 0.49. Besides, the “concentration of the protein bands (semiquantitative, normalized), Bcl-2” value in series [7] (24 h) was 0.20. Further, in series [8] (2 h), the “concentration of the protein bands (semiquantitative, normalized), Mcl-1” value was determined as 0.60. Also, the “concentration of the protein bands (semiquantitative, normalized), Mcl-1” value in series [8] (6 h) was determined as 0.29.

In the case of `CCCCCCNC1=C2C(=NC1=O)c1cccc3cccc2c13` [Compound 2, 9-n-Hexylamino-acenaphtho[1,2-b]pyrrol-8-one], the melting point was in the range of 234 to 235 °C. Also, the IC50 in series [1] was 28 nM. The IC50 in series [2] is 25 nM. In series [3], the “Doses (concentration at which the compound interfered with the interaction between Bcl-2 and Bax)” value is 0.4 µM; the “Time (time period after which the interaction between Bcl-2 and Bax was interfered)” value came to 3 h. In series [4], the “Doses (concentration at which the compound drove the BAX to shift towards the chondriosome)” value was 0.5 µM and the “Time (time period after which BAX shifted towards the chondriosome)” value was found to be 3 h. Besides, in series [5], the IC50 came out at 3500 nM. This compound returned an IC50 in series [6] above 50000 nM. For the same compound, the “concentration of the protein bands (semiquantitative, normalized), Bcl-2” value in series [7] (6 h) came out at 0.99. Besides, in [7] (12 h), the “concentration of the protein bands (semiquantitative, normalized), Bcl-2” value worked out at 0.99. Besides, the “concentration of the protein bands (semiquantitative, normalized), Bcl-2” value in series [7] (18 h) was found to be 0.50. For the same compound, the “concentration of the protein bands (semiquantitative, normalized), Bcl-2” value in series [7] (24 h) came to 0.19. Also, the “concentration of the protein bands (semiquantitative, normalized), Mcl-1” value in series [8] (2 h) was found to be 0.70. Besides, in [8] (6 h), the “concentration of the protein bands (semiquantitative, normalized), Mcl-1” value came out at 0.31.

For `CC(C)c1ccc(Oc2ccc3c4c(cccc24)C2=NC(=O)C(NCCCc4ccccc4)=C23)cc1` [Compound 12, 3-(4-Isopropyl-phenoxy)-9-(3-phenyl-propylamino)-acenaphtho[1,2-b]pyrrol-8-one], the melting point lay within 275 to 276 °C. The IC50 in series [1] is 9 nM. The IC50 in [2] is 15 nM. Besides, in [3], the “Doses (concentration at which the compound interfered with the interaction between Bcl-2 and Bax)” value was found to be 0.2 µM; the “Time (time period after which the interaction between Bcl-2 and Bax was interfered)” value was 1 h. In series [4], the “Doses (concentration at which the compound drove the BAX to shift towards the chondriosome)” value was 0.3 µM and the “Time (time period after which BAX shifted towards the chondriosome)” value is reported as 2 h. Further, the IC50 in [5] amounted to 2900 nM. Further, in series [6], the IC50 is above 50000 nM. Also, the “concentration of the protein bands (semiquantitative, normalized), Bcl-2” value in series [7] (6 h) came to 0.99. The “concentration of the protein bands (semiquantitative, normalized), Bcl-2” value in [7] (12 h) amounted to 0.99. Also, in [7] (18 h), the “concentration of the protein bands (semiquantitative, normalized), Bcl-2” value is listed as 0.45. The “concentration of the protein bands (semiquantitative, normalized), Bcl-2” value in [7] (24 h) was determined as 0.16. In addition, the “concentration of the protein bands (semiquantitative, normalized), Mcl-1” value in [8] (2 h) is given as 0.66. Besides, the “concentration of the protein bands (semiquantitative, normalized), Mcl-1” value in series [8] (6 h) is given as 0.28.

The term melting point denotes the temperature, or range, at which the solid turns liquid.
